In US12077513B2, “Process route of compound of formula (IV), crystal form and preparation method therefor” (SHANDONG DANHONG PHARMACEUTICAL CO., LTD., priority 2018, dated 2024):

Assays:
[1] = target: Human recombinant VAP-1/SSAO enzyme (Homo sapiens (Human), UniProt Q16853); test: Human VAP-1 enzyme activity assay (Amplex Red Monoamine Oxidase Kit); format: biochemical; details: for Inhibitory activity against human recombinant VAP-1/SSAO enzyme (conclusion in words): in vitro
Experimental: Human VAP-1 Enzyme Activity Assay:
Amplex® Red Monoamine Oxidase Kit (Invitrogen #A12214) was used to determine the inhibitory effects of the sample on VAP-1 enzyme activity. 100 nL Test compound (the solvent was DMSO) that had been gradiently diluted was added to a 384-well plate. 25 μL 10 nM VAP-1 enzyme solution was added, and the solution was incubated at room temperature for 30 minutes. The substrate mixture which had been added […] (200 μM Amplex Red, 1 U/mL HRP, 1 mM Benzylamine) was incubated at room temperature for 60 minutes. After the incubation, the fluorescence signal was read with a microplate reader Envision (excitation light wavelength 530-560 nm, emission light wavelength 590 nm). The fluorescence signal value after removing the background signal was analyzed with Prism software. The IC50 of the sample to the VAP-1 enzyme was calculated.

VAP-1/SSAO cell = VAP-1/SSAO cell (Homo sapiens (Human), UniProt Q16853); test: VAP-1 cell activity assay (HUVEC or CHO cells transfected with VAP-1/pCDNA (3.1) plasmid, Amplex Red); format: cell-based; details: for Inhibitory activity against VAP-1/SSAO cells (conclusion in words): in vitro
Chain of VAP-1/SSAO cell (Q16853 whole entry): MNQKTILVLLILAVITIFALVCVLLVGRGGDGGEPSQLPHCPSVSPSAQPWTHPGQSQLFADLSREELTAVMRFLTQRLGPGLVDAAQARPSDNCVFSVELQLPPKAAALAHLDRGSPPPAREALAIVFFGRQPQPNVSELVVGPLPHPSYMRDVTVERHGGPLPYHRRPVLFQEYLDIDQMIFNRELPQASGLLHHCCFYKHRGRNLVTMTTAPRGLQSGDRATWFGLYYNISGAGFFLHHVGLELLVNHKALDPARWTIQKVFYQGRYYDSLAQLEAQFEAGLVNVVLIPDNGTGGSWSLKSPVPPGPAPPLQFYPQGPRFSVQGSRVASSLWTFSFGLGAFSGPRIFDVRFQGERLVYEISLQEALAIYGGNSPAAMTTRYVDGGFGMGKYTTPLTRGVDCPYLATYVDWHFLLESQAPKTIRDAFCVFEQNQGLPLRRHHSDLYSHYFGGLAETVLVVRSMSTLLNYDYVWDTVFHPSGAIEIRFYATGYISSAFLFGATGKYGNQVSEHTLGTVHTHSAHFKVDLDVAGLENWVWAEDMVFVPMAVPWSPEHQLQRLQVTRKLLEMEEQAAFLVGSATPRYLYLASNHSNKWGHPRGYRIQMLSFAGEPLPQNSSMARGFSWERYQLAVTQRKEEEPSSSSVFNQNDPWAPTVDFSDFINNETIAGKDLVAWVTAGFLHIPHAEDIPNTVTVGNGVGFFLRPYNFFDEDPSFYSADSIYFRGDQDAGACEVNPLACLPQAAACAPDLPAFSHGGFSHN
Experimental: Amplex® Red Monoamine Oxidase Kit (Invitrogen #A12214) was used to determine the inhibitory effect of the sample on VAP-1 enzyme activity.
The HUVEC or CHO cells were plated onto a 6-well plate at a density of 0.8M/well, placed in a 37° C., 5% CO2 incubator for 24 hours, and then transfected with Lipo2000 reagent and VAP-1/pCDNA (3.1) plasmid. The medium was changed after 5 h (Lipo2000 is toxic to cells). After 24 h, the cells digested and plated into a 384-well plate at a density of 25 μl, 10000 cells/well, 6-7 h, and the cell medium was changed to the medium without FBS and the cell plate was placed in a 37° C. 5% CO2 incubator overnight.
• 1) Compound dilution: 4-fold serial dilution with 100% DMSO and diluted at 10 points. The initial concentration of the test compound was 0.5 mM (final concentration was […]); ECHO was used to transfer 100 nL of the compound solution to a 384-well cell detection plate. Negative control well: 100 nL DMSO; background control well: 100 nL DMSO+25 μL medium. • 2) Reaction was kept for 30 minutes at room temperature and protected from light. • 3) Amplex Red reagent+HRP+benzylamine substrate working solution preparation: • Amplex Red reagent+HRP+benzylamine substrate working solution (200 μM Amplex Red reagent+1 U/mL HRP+1 mM benzylamine): 45 μL of 20 mM Amplex Red reagent mother liquor, 22.5 μL of 200 U/mL horseradish peroxidase (HRP) mother liquor and 45 μL of 100 mM benzylamine were added to 4.3875 mL of 1× reaction buffer. • 4) After 30 minutes, 25 μL of the substrate working solution was added to a 384-well plate. […]

[2] = Solid stability test, crystal form characterized by XRPD; format: physicochemical
Experimental: An electronic balance was used to accurately weigh 60 mg sample of crystal form B of compound (IV) (3 samples in parallel for each stability test condition). The samples were placed in a dry and clean 5 mL beaker and spread into a thin layer. The aluminum foil was pierced with holes and placed on the beaker, fixed with rubber bands. The beaker was placed in tbc environment of various stability test conditions and remained for sampling at investigation time. The samples were investigated at 60° C. (5 days, 10 days), 25° C./92.5% RH (5 days, 10 days), 40° C./75% RH (one month, two months, three months), 60° C./75% RH (one month, two months) and light (10 days) conditions. X-ray powder diffraction (XRPD) was used to characterize the solid under various conditions.

[3] = listed as crystal form B of the compound of formula (IV)

Chain of Human recombinant VAP-1/SSAO enzyme (Q16853 whole entry): as above

CC(C)n1nc(-c2ccc(OC/C(=C/F)CN)cc2)nc1C1CC1
IC50 ([1]; 30 min preincubation, benzylamine substrate, read-out: Human recombinant VAP-1/SSAO enzyme inhibitory activity IC50): 0.71 ± 0.21 nM | Inhibitory activity against human recombinant VAP-1/SSAO enzyme (conclusion in words) [1, 3]: strong inhibitory activity | IC50 (VAP-1/SSAO cell; VAP-1 transfected HUVEC or CHO cells, read-out: VAP-1/SSAO cell activity assay test IC50): 2.2 ± 1.49 nM | Inhibitory activity against VAP-1/SSAO cells (conclusion in words) (VAP-1/SSAO cell; [3]): strong inhibitory activity

CC(C)n1nc(-c2ccc(OC/C(=C/F)CN)cc2)nc1C1CC1 [Compound of formula (IV)]
Inhibitory activity against human recombinant VAP-1/SSAO enzyme (conclusion in words) [1]: strong inhibitory activity | Inhibitory activity against VAP-1/SSAO cells (conclusion in words) (VAP-1/SSAO cell): strong inhibitory activity

CC(C)n1nc(-c2ccc(OC/C(=C/F)CN)cc2)nc1C1CC1 [Crystal form A]
Stability (general statement in words) [2]: good stability
